Data from patent US7709471B2, “Compounds” (AstraZeneca AB, priority 2006, dated 2010).

Columns and labels:
[1] = molecular target: recombinant Plk1 (Homo sapiens, UniProt P53350); test: In Vitro Plk1 Enzyme Assay (SPA, GST-Cdc25C phosphorylation); format: biochemical; conditions: ATP 64 nM, 90 minutes, read-out: IC50 (Plk1 enzyme inhibition)
[2] = system: human colon tumour cell line HT29; test: Cellular Assay (phosphohistone H3 Ser10 mitotic marker, HT29); format: cell-based; conditions: HT-29, 24 h, HT29 cells, read-out: IC50 (cellular assay, phosphohistone H3)
Experimental: Chromosome condensation in mitosis is accompanied by phosphorylation of histone H3 on serine 10.
After 24 hours, cells were fixed in 3.7% (v/v) formaldehyde then permeabilised and blocked for 10 minutes in 100 μl 0.5% (v/v) Triton X-100, 1% (w/v) bovine serum albumin (BSA) in phosphate buffered saline (PBS). […] The raw assay data were analysed by non-linear regression analysis and used to determine an IC50 value for each compound.

Sequence of recombinant Plk1 (P53350 whole entry): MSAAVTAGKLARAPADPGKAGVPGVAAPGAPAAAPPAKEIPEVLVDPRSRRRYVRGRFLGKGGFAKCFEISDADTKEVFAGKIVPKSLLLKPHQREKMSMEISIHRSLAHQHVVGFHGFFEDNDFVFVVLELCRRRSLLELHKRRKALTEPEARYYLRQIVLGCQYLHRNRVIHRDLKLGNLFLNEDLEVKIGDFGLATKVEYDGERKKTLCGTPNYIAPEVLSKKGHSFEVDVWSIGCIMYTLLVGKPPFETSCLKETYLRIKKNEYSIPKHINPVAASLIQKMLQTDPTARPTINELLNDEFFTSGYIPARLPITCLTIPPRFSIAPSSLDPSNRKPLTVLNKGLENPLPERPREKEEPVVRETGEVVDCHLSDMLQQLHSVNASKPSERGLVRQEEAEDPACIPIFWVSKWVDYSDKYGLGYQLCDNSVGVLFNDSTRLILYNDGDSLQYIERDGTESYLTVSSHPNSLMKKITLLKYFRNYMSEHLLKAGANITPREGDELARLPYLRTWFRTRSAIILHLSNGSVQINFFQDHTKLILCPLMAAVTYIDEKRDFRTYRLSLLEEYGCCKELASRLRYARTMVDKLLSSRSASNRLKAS

SMILES: CCN(CC)CCCNC(=O)c1ccc(Nc2ncc3c(n2)N(C2CCCC2)CCC(=O)N3C)c(OC)c1 [Example 78, 4-[(6-cyclopentyl-2-methyl-3-oxo-2,6,8,10-tetrazabicyclo[5.4.0]undeca-8,10,12-trien-9-yl)amino]-N-(3-diethylaminopropyl)-3-methoxy-benzamide]
- IC50 [1]: < 300 nM
- IC50 [2]: < 300 nM

SMILES: COc1cc(C(=O)NCc2ccncc2)ccc1Nc1ncc2c(n1)N(C1CCCC1)CCC(=O)N2C [Example 80, 4-[(6-cyclopentyl-2-methyl-3-oxo-2,6,8,10-tetrazabicyclo[5.4.0]undeca-8,10,12-trien-9-yl)amino]-3-methoxy-N-(pyridin-4-ylmethyl)benzamide]
- IC50 [1]: < 1000 nM
- IC50 [2]: < 300 nM

SMILES: COc1cc(C(=O)NC(C)(C)CN2CCCC2)ccc1Nc1ncc2c(n1)N(C1CCCC1)CCC(=O)N2C [Example 81, 4-[(6-cyclopentyl-2-methyl-3-oxo-2,6,8,10-tetrazabicyclo[5.4.0]undeca-8,10,12-trien-9-yl)amino]-3-methoxy-N-(2-methyl-1-pyrrolidin-1-yl-propan-2-yl)benzamide]
- IC50 [1]: < 1000 nM
- IC50 [2]: < 300 nM

SMILES: COc1cc(C(=O)NC[C@@H]2CCCN2CC2CC2)ccc1Nc1ncc2c(n1)N(C1CCCC1)CCC(=O)N2C [Example 82, 4-[(6-cyclopentyl-2-methyl-3-oxo-2,6,8,10-tetrazabicyclo[5.4.0]undeca-8,10,12-trien-9-yl)amino]-N-[[(2S)-1-(cyclopropylmethyl)pyrrolidin-2-yl]methyl]-3-methoxy-benzamide]
- IC50 [1]: < 300 nM
- IC50 [2]: < 300 nM

SMILES: COc1cc(C(=O)NCC2(CN3CCCC3)CC2)ccc1Nc1ncc2c(n1)N(C1CCCC1)CCC(=O)N2C [Example 83, 4-[(6-cyclopentyl-2-methyl-3-oxo-2,6,8,10-tetrazabicyclo[5.4.0]undeca-8,10,12-trien-9-yl)amino]-3-methoxy-N-[[1-(pyrrolidin-1-ylmethyl)cyclopropyl]methyl]benzamide]
- IC50 [1]: < 300 nM
- IC50 [2]: < 300 nM

SMILES: COc1cc(C(=O)NCC2CCCN(C)C2)ccc1Nc1ncc2c(n1)N(C1CCCC1)CCC(=O)N2C (stereo not drawn) [Example 84, 4-[(6-cyclopentyl-2-methyl-3-oxo-2,6,8,10-tetrazabicyclo[5.4.0]undeca-8,10,12-trien-9-yl)amino]-3-methoxy-N-[(1-methyl-3-piperidyl)methyl]benzamide]
- IC50 [1]: < 300 nM
- IC50 [2]: < 300 nM

SMILES: COc1cc(C(=O)NCCC2CCCCN2C)ccc1Nc1ncc2c(n1)N(C1CCCC1)CCC(=O)N2C (stereo not drawn) [Example 85, 4-[(6-cyclopentyl-2-methyl-3-oxo-2,6,8,10-tetrazabicyclo[5.4.0]undeca-8,10,12-trien-9-yl)amino]-3-methoxy-N-[2-(1-methyl-2-piperidyl)ethyl]benzamide]
- IC50 [1]: < 300 nM
- IC50 [2]: < 300 nM

SMILES: COc1cc(C(=O)N[C@@H]2CC[C@H](C(=O)N(C)C)C2)ccc1Nc1ncc2c(n1)N(C1CCCC1)CCC(=O)N2C [Example 88, 4-[(6-cyclopentyl-2-methyl-3-oxo-2,6,8,10-tetrazabicyclo[5.4.0]undeca-8,10,12-trien-9-yl)amino]-N-[(1R,3S)-3-(dimethylcarbamoyl)cyclopentyl]-3-methoxy-benzamide]
- IC50 [1]: < 100000 nM
- IC50 [2]: < 300 nM

SMILES: CN1C(=O)CCN(C2CCCC2)c2nc(Nc3ccc(C(=O)NC4CCCCC4)cc3)ncc21 [Example 89, N-cyclohexyl-4-[(6-cyclopentyl-2-methyl-3-oxo-2,6,8,10-tetrazabicyclo[5.4.0]undeca-8,10,12-trien-9-yl)amino]benzamide]
- IC50 [1]: < 1000 nM
- IC50 [2]: < 30000 nM

SMILES: COc1cc(C(=O)NC2CCCCC2)ccc1Nc1ncc2c(n1)N(C1CCCC1)CCC(=O)N2C [Example 90, N-cyclohexyl-4-[(6-cyclopentyl-2-methyl-3-oxo-2,6,8,10-tetrazabicyclo[5.4.0]undeca-8,10,12-trien-9-yl)amino]-3-methoxy-benzamide]
- IC50 [1]: < 1000 nM
- IC50 [2]: < 300 nM

SMILES: COc1cc(C(N)=O)ccc1Nc1ncc2c(n1)N(C1CCCC1)CCC(=O)N2C [Example 92, 4-[(6-cyclopentyl-2-methyl-3-oxo-2,6,8,10-tetrazabicyclo[5.4.0]undeca-8,10,12-trien-9-yl)amino]-3-methoxy-benzamide]
- IC50 [1]: < 300 nM
- IC50 [2]: < 300 nM

SMILES: CCCNC(=O)c1ccc(Nc2ncc3c(n2)N(C2CCCC2)CCC(=O)N3C)c(OC)c1 [Example 93, 4-[(6-cyclopentyl-2-methyl-3-oxo-2,6,8,10-tetrazabicyclo[5.4.0]undeca-8,10,12-trien-9-yl)amino]-3-methoxy-N-propyl-benzamide]
- IC50 [1]: < 1000 nM
- IC50 [2]: < 300 nM

SMILES: COc1cc(C(=O)NCC2CC2)ccc1Nc1ncc2c(n1)N(C1CCCC1)CCC(=O)N2C [Example 94, 4-[(6-cyclopentyl-2-methyl-3-oxo-2,6,8,10-tetrazabicyclo[5.4.0]undeca-8,10,12-trien-9-yl)amino]-N-(cyclopropylmethyl)-3-methoxy-benzamide]
- IC50 [1]: < 100000 nM
- IC50 [2]: < 300 nM

SMILES: COc1cc(C(=O)NC(C)C)ccc1Nc1ncc2c(n1)N(C1CCCC1)CCC(=O)N2C [Example 95, 4-[(6-cyclopentyl-2-methyl-3-oxo-2,6,8,10-tetrazabicyclo[5.4.0]undeca-8,10,12-trien-9-yl)amino]-3-methoxy-N-propan-2-yl-benzamide]
- IC50 [1]: < 1000 nM
- IC50 [2]: < 300 nM

SMILES: COc1cc(C(=O)NCc2ccccc2)ccc1Nc1ncc2c(n1)N(C1CCCC1)CCC(=O)N2C [Example 96, N-benzyl-4-[(6-cyclopentyl-2-methyl-3-oxo-2,6,8,10-tetrazabicyclo[5.4.0]undeca-8,10,12-trien-9-yl)amino]-3-methoxy-benzamide]
- IC50 [1]: < 100000 nM
- IC50 [2]: < 300 nM

SMILES: COc1cc(C(=O)NC2CCC2)ccc1Nc1ncc2c(n1)N(C1CCCC1)CCC(=O)N2C [Example 98, N-cyclobutyl-4-[(6-cyclopentyl-2-methyl-3-oxo-2,6,8,10-tetrazabicyclo[5.4.0]undeca-8,10,12-trien-9-yl)amino]-3-methoxy-benzamide]
- IC50 [1]: < 1000 nM
- IC50 [2]: < 300 nM

SMILES: COc1cc(C(=O)Nc2ccccc2)ccc1Nc1ncc2c(n1)N(C1CCCC1)CCC(=O)N2C [Example 99, 4-[(6-cyclopentyl-2-methyl-3-oxo-2,6,8,10-tetrazabicyclo[5.4.0]undeca-8,10,12-trien-9-yl)amino]-3-methoxy-N-phenyl-benzamide]
- IC50 [1]: < 100000 nM
- IC50 [2]: < 1000 nM

SMILES: COc1cc(N(C)C2CCN(C)CC2)ccc1Nc1ncc2c(n1)N(C1CCCC1)CCC(=O)N2C [Example 104, 6-cyclopentyl-9-[[2-methoxy-4-[methyl-(1-methyl-4-piperidyl)amino]phenyl]amino]-2-methyl-2,6,8,10-tetrazabicyclo[5.4.0]undeca-8,10,12-trien-3-one]
- IC50 [1]: < 300 nM
- IC50 [2]: < 1000 nM

SMILES: COCCN1CCN(c2ccc(Nc3ncc4c(n3)N(C3CCCC3)CCC(=O)N4C)c(OC)c2)CC1 [Example 105, 6-cyclopentyl-9-[[2-methoxy-4-[4-(2-methoxyethyl)piperazin-1-yl]phenyl]amino]-2-methyl-2,6,8,10-tetrazabicyclo[5.4.0]undeca-8,10,12-trien-3-one]
- IC50 [1]: < 1000 nM
- IC50 [2]: < 30000 nM

SMILES: COc1cc(NCCN(C)C)ccc1Nc1ncc2c(n1)N(C1CCCC1)CCC(=O)N2C [Example 107, 6-cyclopentyl-9-[[4-(2-dimethylaminoethylamino)-2-methoxy-phenyl]amino]-2-methyl-2,6,8,10-tetrazabicyclo[5.4.0]undeca-8,10,12-trien-3-one]
- IC50 [1]: < 1000 nM
- IC50 [2]: < 30000 nM

SMILES: COc1cc(N2CCCN(C)CC2)ccc1Nc1ncc2c(n1)N(C1CCCC1)CCC(=O)N2C [Example 109, 6-cyclopentyl-9-[[2-methoxy-4-(4-methyl-1,4-diazepan-1-yl)phenyl]amino]-2-methyl-2,6,8,10-tetrazabicyclo[5.4.0]undeca-8,10,12-trien-3-one]
- IC50 [1]: < 1000 nM
- IC50 [2]: < 300 nM

SMILES: COc1cc(OC2CCN(C)CC2)ccc1Nc1ncc2c(n1)N(C1CCCC1)CCC(=O)N2C [Example 113, 6-cyclopentyl-9-[[2-methoxy-4-[(1-methyl-4-piperidyl)oxy]phenyl]amino]-2-methyl-2,6,8,10-tetrazabicyclo[5.4.0]undeca-8,10,12-trien-3-one]
- IC50 [1]: < 1000 nM
- IC50 [2]: < 1000 nM

SMILES: COc1cc(OC2CCN(C)C2)ccc1Nc1ncc2c(n1)N(C1CCCC1)CCC(=O)N2C (stereo not drawn) [Example 114, 6-cyclopentyl-9-[[2-methoxy-4-(1-methylpyrrolidin-3-yl)oxy-phenyl]amino]-2-methyl-2,6,8,10-tetrazabicyclo[5.4.0]undeca-8,10,12-trien-3-one]
- IC50 [1]: < 300 nM
- IC50 [2]: < 1000 nM

SMILES: COc1cc(OCCN2CCOCC2)ccc1Nc1ncc2c(n1)N(C1CCCC1)CCC(=O)N2C [Example 115, 6-cyclopentyl-9-[[2-methoxy-4-(2-morpholin-4-ylethoxy)phenyl]amino]-2-methyl-2,6,8,10-tetrazabicyclo[5.4.0]undeca-8,10,12-trien-3-one]
- IC50 [1]: < 1000 nM
- IC50 [2]: < 30000 nM

SMILES: CN(C)c1ccc(Nc2ncc3c(n2)N(C2CCCC2)CCC(=O)N3C)cc1 [Example 122, 6-cyclopentyl-9-[(4-dimethylaminophenyl)amino]-2-methyl-2,6,8,10-tetrazabicyclo[5.4.0]undeca-8,10,12-trien-3-one]
- IC50 [1]: < 100000 nM
- IC50 [2]: < 30000 nM

SMILES: CN1C(=O)CCN(C2CCCC2)c2nc(Nc3ccc(S(N)(=O)=O)cc3)ncc21 [Example 123, 4-[(6-cyclopentyl-2-methyl-3-oxo-2,6,8,10-tetrazabicyclo[5.4.0]undeca-8,10,12-trien-9-yl)amino]benzenesulfonamide]
- IC50 [1]: < 100000 nM
- IC50 [2]: < 30000 nM

SMILES: CC(=O)N1CCc2cc(Nc3ncc4c(n3)N(C3CCCC3)CCC(=O)N4C)ccc21 [Example 124, 9-[(1-acetyl-2,3-dihydroindol-5-yl)amino]-6-cyclopentyl-2-methyl-2,6,8,10-tetrazabicyclo[5.4.0]undeca-8,10,12-trien-3-one]
- IC50 [1]: < 1000 nM
- IC50 [2]: < 30000 nM
